Assay results published in US9078444B2, “Isothiazoline derivatives as insecticidal compounds” (Syngenta Participations AG, priority 2011, dated 2015).
Where two headings read alike, the source gives them in different places.

Columns and labels:
Type in all cases: in vivo
[1] = system: Spodoptera littoralis; experiment: Spodoptera littoralis persistence test on sprayed cotton plants (increased safety profile / bio-degradability); conditions: for Control after 10 days/%: leaves excised 10 days after treatment; for pest or weed control at 12.5 ppm: Spodoptera littoralis
Protocol: Biological Examples Showing Increased Safety Profile:
Spodoptera littoralis (Egyptian Cotton Leafworm)
Cotton plants in the 5th leaf stage (around 5 weeks old) are treated in an automated turn table spray chamber. Plants are stored in the greenhouse length during the whole test period.
2, 16 and optionally 10 days after treatment 4 leaves from each sample are excised, placed into 14 cm plastic petri dishes on wet filter paper. The infestation of 10 L3-Spodoptera littoralis is made immediately afterwards. After an incubation period of 6 days the samples are checked for mortality.
In the following series of experiments the compounds of the invention are compared with the corresponding isoxazoline analogues from the prior art on Spodoptera littoralis (Egyptian cotton leafworm) performed as described in the method above.

[2] = system: Heliothis virescens; experiment: Heliothis virescens (tobacco budworm) egg test on artificial diet; conditions: 96 h, 200 ppm (concentration in well 18 ppm), eggs on artificial diet, egg mortality, larval mortality, growth regulation after 4 days
Protocol: Heliothis virescens (Tobacco Budworm): Eggs (0-24 h old) were placed in 24-well microtiter plate on artificial diet and treated with test solutions at an application rate of 200 ppm (concentration in well 18 ppm) by pipetting. After an incubation period of 4 days, samples were checked for egg mortality, larval mortality, and growth regulation.

[3] = system: Thrips tabaci; experiment: Thrips tabaci (onion thrips) sunflower leaf disc test; conditions: foliar, 168 h, 200 ppm sprayed on sunflower leaf discs, mixed ages, mortality after 7 days
Protocol: Thrips tabaci (Onion Thrips): Sunflower leaf discs were placed on agar in a 24-well microtiter plate and sprayed with test solutions at an application rate of 200 ppm. After drying, the leaf discs were infested with a thrips population of mixed ages. After an incubation period of 7 days, samples were checked for mortality.

[4] = system: Tetranychus urticae; experiment: Tetranychus urticae (two-spotted spider mite) bean leaf disc test; conditions: foliar, 192 h, 200 ppm sprayed on bean leaf discs, mixed ages, egg, larval and adult mortality 8 days later
Text: Tetranychus urticae (Two-Spotted Spider Mite): Bean leaf discs on agar in 24-well microtiter plates were sprayed with test solutions at an application rate of 200 ppm. After drying, the leaf discs are infested with mite populations of mixed ages. 8 days later, discs are checked for egg mortality, larval mortality, and adult mortality.

[5] = system: Spodoptera littoralis; experiment: Spodoptera littoralis (Egyptian cotton leafworm) cotton leaf disc test; conditions: foliar, 72 h, 200 ppm sprayed on cotton leaf discs, mortality, feeding behavior, growth regulation 3 days after treatment
Protocol: Spodoptera littoralis (Egyptian Cotton Leafworm): Cotton leaf discs were placed on agar in a 24-well microtiter plate and sprayed with test solutions at an application rate of 200 ppm. After drying, the leaf discs were infested with […]. The samples were checked for mortality, feeding behavior, and growth regulation 3 days after treatment (DAT).

[6] = system: Plutella xylostella; experiment: Plutella xylostella (diamond back moth) artificial diet test; conditions: 144 h, 200 ppm (concentration in well 18 ppm), L2 larvae, larval mortality and growth regulation after 6 days
Protocol: (§1) Plutella xylostella (Diamond Back Moth): 24-well microtiter plate (MTP) with artificial diet was treated with test solutions at an application rate of 200 ppm (concentration in well 18 ppm) by pipetting. After drying, the MTPs were infested with L2 larvae (7-12 per well). After an incubation period of 6 days, samples were checked for larval mortality and growth regulation.

[7] = system: Diabrotica balteata; experiment: Diabrotica balteata (corn root worm) artificial diet test; conditions: 120 h, 200 ppm (concentration in well 18 ppm), L2 larvae, larval mortality and growth regulation after 5 days
Protocol: as §1, with “Diabrotica balteata (Corn Root Worm): A” for “Plutella xylostella (Diamond Back Moth):”, “(6-10” for “(7-12”, “5” for “6”

[8] = 12.5 ppm on cotton plants, 10 L3 larvae, mortality after 6 days incubation
[9] = 48 h, 12.5 ppm on cotton plants, leaves excised 2 days after treatment, 10 L3 larvae, mortality after 6 days incubation, read-out: Control after 2 days/%
[10] = 384 h, 12.5 ppm on cotton plants, leaves excised 16 days after treatment, 10 L3 larvae, mortality after 6 days incubation, read-out: Control after 16 days/%

Cc1cc(C2=NOC(c3cc(Cl)cc(Cl)c3)(C(F)(F)F)C2)ccc1C(=O)NCc1ccccn1 (centres unmarked) [Compound 1-061 from EP1731512, reference compound]
Control after 10 days/% [1, 8]: 100%
pest or weed control at 12.5 ppm [1, 9]: 100%
pest or weed control at 12.5 ppm [1, 10]: 100%

Cc1cc(C2=NOC(c3cc(Cl)cc(Cl)c3)(C(F)(F)F)C2)ccc1C(=O)NCC(=O)NCC(F)(F)F (centres unmarked) [Compound 3-086 from EP1731512, reference compound]
Control after 10 days/% [1, 8]: 100%
pest or weed control at 12.5 ppm [1, 9]: 100%
pest or weed control at 12.5 ppm [1, 10]: 100%

Cc1cc(C2=NSC(c3cc(Cl)cc(Cl)c3)(C(F)(F)F)C2)ccc1C(=O)NCC(=O)NCC(F)(F)F (centres unmarked) [Compound A01, 4-[5-(3,5-dichlorophenyl)-5-(trifluoromethyl)-4H-isothiazol-3-yl]-2-methyl-N-[2-oxo-2-(2,2,2-trifluoroethylamino)ethyl]benzamide]
pest or weed control at 200 ppm [2]: ≥ 80%
pest or weed control at 200 ppm [3]: ≥ 80%
pest or weed control at 200 ppm [4]: ≥ 80%
pest or weed control at 200 ppm [5]: ≥ 80%
pest or weed control at 200 ppm [6]: ≥ 80%
pest or weed control at 200 ppm [7]: ≥ 80%
Control after 10 days/% [1, 8]: 60%
pest or weed control at 12.5 ppm [1, 9]: 100%
pest or weed control at 12.5 ppm [1, 10]: 10%

Cc1cc(C2=NSC(c3cc(Cl)cc(Cl)c3)(C(F)(F)F)C2)ccc1C(=O)NC1CS(=O)(=O)C1 (centres unmarked) [Compound A02, 4-[5-(3,5-dichlorophenyl)-5-(trifluoromethyl)-4H-isothiazol-3-yl]-N-(1,1-dioxothietan-3-yl)-2-methyl-benzamide]
pest or weed control at 200 ppm [2]: ≥ 80%
pest or weed control at 200 ppm [3]: ≥ 80%
pest or weed control at 200 ppm [4]: ≥ 80%
pest or weed control at 200 ppm [5]: ≥ 80%
pest or weed control at 200 ppm [6]: ≥ 80%
pest or weed control at 200 ppm [7]: ≥ 80%
Control after 10 days/% [1, 8]: 35%
pest or weed control at 12.5 ppm ([1]; 48 h, read-out: Control after 2 days/%): 100%
pest or weed control at 12.5 ppm ([1]; 384 h, read-out: Control after 16 days/%): 5%

Cc1cc(C2=NOC(c3cc(Cl)cc(Cl)c3)(C(F)(F)F)C2)ccc1C(=O)NC1CS(=O)(=O)C1 (centres unmarked) [Compound A10 from WO2009/080250, reference compound]
Control after 10 days/% [1, 8]: 100%
pest or weed control at 12.5 ppm [1, 9]: 100%
pest or weed control at 12.5 ppm [1, 10]: 100%

Cc1cc(C2=NSC(c3cc(Cl)cc(Cl)c3)(C(F)(F)F)C2)ccc1C(=O)NC(C)c1ccccc1 (centres unmarked) [Compound A12]
pest or weed control at 200 ppm [2]: ≥ 80%
pest or weed control at 200 ppm [3]: ≥ 80%
pest or weed control at 200 ppm [4]: ≥ 80%
pest or weed control at 200 ppm [5]: ≥ 80%
pest or weed control at 200 ppm [6]: ≥ 80%
pest or weed control at 200 ppm [7]: ≥ 80%
pest or weed control at 12.5 ppm [1, 9]: 30%

Cc1cc(C2=NSC(c3cc(Cl)cc(Cl)c3)(C(F)(F)F)C2)ccc1C(=O)NCc1ccccn1 (centres unmarked) [Compound A16]
pest or weed control at 200 ppm [2]: ≥ 80%
pest or weed control at 200 ppm [3]: ≥ 80%
pest or weed control at 200 ppm [4]: ≥ 80%
pest or weed control at 200 ppm [5]: ≥ 80%
pest or weed control at 200 ppm [6]: ≥ 80%
pest or weed control at 200 ppm [7]: ≥ 80%
Control after 10 days/% [1, 8]: 25%
pest or weed control at 12.5 ppm [1, 9]: 100%
pest or weed control at 12.5 ppm [1, 10]: 10%

Cc1cc(C2=NSC(c3cc(Cl)cc(Cl)c3)(C(F)(F)F)C2)ccc1C(=O)NC1CCC1 (centres unmarked) [Compound A24]
Control after 2 days/% ([1]; 12.5 ppm on cotton plants, leaves excised 2 days after treatment, 10 L3 larvae, mortality after 6 days incubation): 100%
Control after 16 days/% ([1]; 12.5 ppm on cotton plants, leaves excised 16 days after treatment, 10 L3 larvae, mortality after 6 days incubation): 0%

Cc1cc(C2=NSC(c3cc(Cl)cc(Cl)c3)(C(F)(F)F)C2)ccc1C(=O)NC1(C#N)CC1 (centres unmarked) [Compound A45]
pest or weed control at 200 ppm [2]: ≥ 80%
pest or weed control at 200 ppm [3]: ≥ 80%
pest or weed control at 200 ppm [4]: ≥ 80%
pest or weed control at 200 ppm [5]: ≥ 80%
pest or weed control at 200 ppm [6]: ≥ 80%
pest or weed control at 200 ppm [7]: ≥ 80%
pest or weed control at 12.5 ppm [1, 9]: 75%
pest or weed control at 12.5 ppm [1, 10]: 0%

Cc1cc(C2=NSC(c3cc(Cl)cc(Cl)c3)(C(F)(F)F)C2)ccc1C(=O)NCC(C)C (centres unmarked) [Compound A46]
pest or weed control at 200 ppm [2]: ≥ 80%
pest or weed control at 200 ppm [3]: ≥ 80%
pest or weed control at 200 ppm [4]: ≥ 80%
pest or weed control at 200 ppm [5]: ≥ 80%
pest or weed control at 200 ppm [6]: ≥ 80%
pest or weed control at 200 ppm [7]: ≥ 80%
pest or weed control at 12.5 ppm [1, 9]: 40%
pest or weed control at 12.5 ppm [1, 10]: 0%

Cc1cc(C2=NSC(c3cc(Cl)cc(Cl)c3)(C(F)(F)F)C2)ccc1C(=O)NCC1CC1 (centres unmarked) [Compound A53]
pest or weed control at 200 ppm [2]: ≥ 80%
pest or weed control at 200 ppm [3]: ≥ 80%
pest or weed control at 200 ppm [4]: ≥ 80%
pest or weed control at 200 ppm [5]: ≥ 80%
pest or weed control at 200 ppm [6]: ≥ 80%
pest or weed control at 200 ppm [7]: ≥ 80%
pest or weed control at 12.5 ppm [1, 9]: 85%
pest or weed control at 12.5 ppm [1, 10]: 0%

Cc1cc(C2=NSC(c3cc(Cl)cc(Cl)c3)(C(F)(F)F)C2)ccc1C(=O)Nc1ccc(F)cc1 (centres unmarked) [Compound A59]
pest or weed control at 200 ppm [2]: ≥ 80%
pest or weed control at 200 ppm [3]: ≥ 80%
pest or weed control at 200 ppm [4]: ≥ 80%
pest or weed control at 200 ppm [5]: ≥ 80%
pest or weed control at 200 ppm [6]: ≥ 80%
pest or weed control at 200 ppm [7]: ≥ 80%
pest or weed control at 12.5 ppm [1, 9]: 100%
pest or weed control at 12.5 ppm [1, 10]: 10%

N#Cc1cc(C2=NSC(c3cc(Cl)cc(Cl)c3)(C(F)(F)F)C2)ccc1-n1cncn1 (centres unmarked) [Compound B1, 5-[5-(3,5-dichlorophenyl)-5-(trifluoromethyl)-4,5-dihydro-isothiazol-3-yl]-2-(1,2,4-triazol-1-yl)benzonitrile]
pest or weed control at 200 ppm [2]: ≥ 80%
pest or weed control at 200 ppm [3]: ≥ 80%
pest or weed control at 200 ppm [4]: ≥ 80%
pest or weed control at 200 ppm [5]: ≥ 80%
pest or weed control at 200 ppm [6]: ≥ 80%
pest or weed control at 200 ppm [7]: ≥ 80%

N#Cc1cc(C2=NS[C@@](c3cc(Cl)c(Cl)c(Cl)c3)(C(F)(F)F)C2)ccc1-n1cncn1 [Compound B2, 2-(1,2,4-triazol-1-yl)-5-[(5S)-5-(3,4,5-trichlorophenyl)-5-(trifluoromethyl)-4H-isothiazol-3-yl]benzonitrile]
pest or weed control at 200 ppm [2]: ≥ 80%
pest or weed control at 200 ppm [3]: ≥ 80%
pest or weed control at 200 ppm [4]: ≥ 80%
pest or weed control at 200 ppm [5]: ≥ 80%
pest or weed control at 200 ppm [6]: ≥ 80%
pest or weed control at 200 ppm [7]: ≥ 80%

CCO/N=C/NC(=O)c1ccc(C2=NSC(c3cc(Cl)cc(Cl)c3)(C(F)(F)F)C2)cc1C (centres unmarked) [Compound C2, 4-[5-(3,5-dichlorophenyl)-5-(trifluoromethyl)-4H-isothiazol-3-yl]-N-[(E)-ethoxyiminomethyl]-2-methyl-benzamide]
pest or weed control at 200 ppm [2]: ≥ 80%
pest or weed control at 200 ppm [3]: ≥ 80%
pest or weed control at 200 ppm [4]: ≥ 80%
pest or weed control at 200 ppm [5]: ≥ 80%
pest or weed control at 200 ppm [6]: ≥ 80%
pest or weed control at 200 ppm [7]: ≥ 80%

Cc1cc(C2=NSC(c3cc(Cl)c(Cl)c(Cl)c3)(C(F)(F)F)C2)ccc1C(=O)NC1CS(=O)(=O)C1 (centres unmarked) [Compound D2, N-(1,1-dioxothietan-3-yl)-2-methyl-4-[5-(3,4,5-trichlorophenyl)-5-(trifluoromethyl)-4H-isothiazol-3-yl]benzamide]
pest or weed control at 200 ppm [2]: ≥ 80%
pest or weed control at 200 ppm [3]: ≥ 80%
pest or weed control at 200 ppm [4]: ≥ 80%
pest or weed control at 200 ppm [5]: ≥ 80%
pest or weed control at 200 ppm [6]: ≥ 80%
pest or weed control at 200 ppm [7]: ≥ 80%

Cc1cc(C2=NSC(c3cc(Cl)c(Cl)c(Cl)c3)(C(F)(F)F)C2)ccc1C(=O)NC1C[S+]([O-])C1 (centres unmarked) [Compound D3, 2-methyl-N-(1-oxothietan-3-yl)-4-[5-(3,4,5-trichlorophenyl)-5-(trifluoromethyl)-4H-isothiazol-3-yl]benzamide]
pest or weed control at 200 ppm [2]: ≥ 80%
pest or weed control at 200 ppm [3]: ≥ 80%
pest or weed control at 200 ppm [4]: ≥ 80%
pest or weed control at 200 ppm [5]: ≥ 80%
pest or weed control at 200 ppm [6]: ≥ 80%
pest or weed control at 200 ppm [7]: ≥ 80%
